The text below walks through data of patent US20120083486A1, “KIT, COMPOSITION, PRODUCT OR MEDICAMENT FOR TREATING COGNITIVE IMPAIRMENT” (ZENYAKU KOGYO KABUSHIKIKAISHA, priority 2008, published 2012).

Each structure is given as a SMILES string.

In assay [1] the test system is scopolamine-induced cognitive impairment. As to the kind of experiment: passive avoidance task, scopolamine-induced cognitive impairment in mice. The format is in vivo. As to conditions: alone, compared with 1% CMC and scopolamine group. On the procedure:
Eight to nine week old male ICR strain mice (Charles River Laboratories Japan, Inc.) were used in the experiment. They were housed in a cage in groups of 3 or 4 mice, in a room maintained at around 22 degree C. under 12 hour light/dark cycles. Food and water were provided ad libitum. All animal care and treatment was conducted in accordance with the Guidelines for the Care and Use of Laboratory Animals, established at the Central Research Laboratory, Zenyaku Kogyo Co., Ltd.
Compound 1 and donepezil were suspended in 1% carboxymethyl cellulose (CMC). […] For the coadministration studies of Compound 1 and donepezil, both drug suspensions were mixed together and this mixed suspension was […]. All drugs were prepared immediately before use and orally administered at a dosage of 10 ml/kg.
The passive avoidance apparatus (Neuroscience Inc.) consisted of an illuminated chamber and a larger dark chamber. Two chambers were separated by a guillotine door. Oral administration of compound 1 at doses of 0.0001 mg/kg or 0.001 mg/kg and/or donepezil at doses of 0.01 and 0.1 mg/kg was given 60 min before the acquisition trial. […] The matched control group only received the vehicle. During the acquisition trial, each mouse was placed in the illuminated chamber. Immediately after the entry into the dark chamber, the door was closed and an inescapable scrambled electric shock (100 V, 0.4 mA, 1.5 sec) was delivered through the floor grid. Twenty-four hours later, each mouse was placed in the illuminated chamber for retention trial. The interval between placement in the illuminated chamber and entry into the dark chamber was measured as step through latency (maximum 300 seconds).
A P level of <0.05 was considered indicative of statistical significance for the tests.

Assay [2] deals with extracellular levels of acetylcholine (ACh) in a rat hippocampus. As to the kind of experiment: extracellular levels of acetylcholine (ACh) in rat hippocampus (microdialysis, HPLC-ECD). As to conditions: alone, compared with 1% CMC group. Type of assay: in vivo. The procedure:
Food and water were provided ad libitum. All animal care and treatment was conducted in accordance with the Guidelines for the Care and Use of Laboratory Animals, established at the Central Research Laboratory, Zenyaku Kogyo Co., Ltd.

Consider `O=C1N=C2C=CC=CN2C12Cc1ccccc1C2` [compound 1, spiro[imidazo[1,2-a]pyridin-2(3H)-one-3,2′-indan]], for which the “step-through latency in retention trial” value in assay [1] (compound 1 0.0001 mg/kg oral) is listed as “did not significantly prolong the step-through latency”; in assay [1] (compound 1 0.001 mg/kg oral, P<0.05) it was “prolonged the step-through latency”. Moreover, the “extracellular level of ACh in the hippocampus” value in assay [2] (compound 1 0.001 mg/kg oral) was “did not significantly increase”.

With `COc1cc2c(cc1OC)C(=O)C(CC1CCN(Cc3ccccc3)CC1)C2` (stereo not drawn) [donepezil], the “step-through latency in retention trial” value is listed as “did not significantly prolong the step-through latency” in assay [1] (donepezil 0.01 mg/kg oral) and “prolonged the step-through latency” in assay [1] (donepezil 0.1 mg/kg oral, P<0.05). The “extracellular level of ACh in the hippocampus” value in assay [2] (donepezil 1 mg/kg oral) was “did not significantly increase”.
